Assay results as given in patent US7902422B2 (priority 2004, dated 2011).
Where a SMILES comes first, the peptide text is derived from it. [ ]: non-standard residue; d: D form. The star is where a group is joined. Nva = CCC[C@H](N)C(=O)O; Cbz = O=C(OCc1ccccc1)*

Assays:
[1] = tested on: transgenically overexpressed EIN3 protein; format: in vivo, Arabidopsis; conditions: for abundance of transgenically overexpressed EIN3 protein: EIN3ox seedlings grown in air, MG132 50 μM, MG115 50 μM, Pefabloc SC 100 μM, 4 hr
Method: (§1) Ethylene treatment of Arabidopsis seedlings grown on plates was performed in containers by flowing through hydrocarbon-free air supplemented with 10 ppm (parts per million) ethylene or were treated with hydrocarbon-free air alone (Kieber et al., Cell 72, 427-441, 1993). For drug treatments, Arabidopsis suspension cell cultures were treated with MG132 (50 μM), MG115 (50 μM), Pefabloc SC (100 μM) or DMSO (0.1%) for a time course study. Alternatively, etiolated seedlings were germinated for three days on a disc of Whatman paper resting on the surface of MS medium. MG132 (50 μM), MG115 (50 μM), Pefabloc SC (100 μM) or DMSO (0.1%) was added to the paper discs for 4 hr. Cycloheximide (100 μM) was added to the paper discs and ethylene or air was applied for different amounts of time.

EIN3 protein [2] = assay: EIN3 protein immunoblot, Arabidopsis suspension cell cultures; format: cell-based; conditions: suspension cells; MG132 50 μM (after 30 min), MG115 50 μM, Pefabloc SC 100 μM
Method: as §1

EIN3 protein [3] = assay: EIN3 protein immunoblot, etiolated wild-type seedlings; format: in vivo, Arabidopsis
Method: With the exception of eto2 in Landsberg erecta (Ler) background, the ecotype Columbia (Col-0) was the parent strain for all mutant and transgenic lines described herein. Arabidopsis seeds were surface-sterilized and plated on the surface of MS medium (4.3 g MS salts, 10 g sucrose, pH 5.7, 8 g bactoagar per liter). After 3-4 days in the light at 4° C., the plates were wrapped in foil and kept in a 24° C. incubator before the phenotypes of seedlings were analyzed. For propagation, seedlings from plates were transferred to soil (Promix-HP) and grown to maturity at 22° C. under a 16 hr light/8 hr dark cycle.
as §1

EIN3-GFP fusion protein [4] = conditions: immunoblot, ethylene treatment
Method: Protein samples were prepared by homogenizing the powdered tissues in 2×SDS-PAGE sample buffer and boiling the homogenate for 5 min. After centrifugation, the protein extracts were fractionated by 4-12% gradient Tris-Glycine Novex precast gels (Invitrogen), blotted onto a nitrocellulose filter. The blot was probed first with anti-EIN3 antibody, and was subsequently stripped with 0.2 N glycine (pH 2.5) for 3 times and re-probed with either anti-CRY1 antibody (Lin et al., Proc Natl Acad Sci 92, 8423-8427, 1995) or anti-SUB1 antibody (Guo et al., Science 291, 487-490, 2001)
The triple response phenotype was scored in T2 seedlings originated from individual Kanamycin-resistant T1 plants. Transgenic seedlings that expressed a functional EIN3-GFP fusion protein were mounted on glass slides using PBS as a mounting medium. […] For the time course experiment, after the first cell image was taken, 50 μM of ACC or MG132 was applied to the slide and the same cell was followed for 4 hr.

EBF2 gene = conditions: in vivo
Method: (§2) (A) Alignment of EBF1 (SEQ ID NO: 2) and EBF2 (SEQ ID NO: 4) amino acid sequences generated with ClustalW program. Identical amino acid residues in the two proteins are highlighted with black boxes. […] (B) Alignment of F-box motif sequences. […] Identities and similarities among the different proteins are highlighted by black and gray, respectively. Consensus residues are denoted by asterisks. […] Etiolated wild-type seedlings were treated with air (air) or ethylene (C2H4) for 4 hr before RNA was extracted for analysis. Each treatment was performed in replicate. The means of normalized intensity were used to indicate relative expression levels.

EBF1 gene = conditions: in vivo
Method: as §2

EIN3-GFP fusion protein [5] = assay: EIN3-GFP nuclear accumulation, fluorescence microscopy of transgenic seedlings; format: in vivo, Arabidopsis; conditions: for abundance of EIN3-GFP in the nucleus: hypocotyl and root cells, ACC 50 μM or MG132 50 μM, absence of ethylene for MG132
Method: Transgenic seedlings that expressed a functional EIN3-GFP fusion protein were mounted on glass slides using PBS as a mounting medium. All images were collected on a fluorescence microscope (Olympus BX60) and the color of the images was artificially added in Photoshop 5.0 (Adobe Systems). For the time course experiment, after the first cell image was taken, 50 μM of ACC or MG132 was applied to the slide and the same cell was followed for 4 hr.

CCC[C@@H](C=O)NC(=O)[C@H](CC(C)C)NC(=O)[C@H](CC(C)C)NC(=O)OCc1ccccc1 [MG115] (Cbz-Leu-Leu-[Nva]-aldehyde)
abundance of transgenically overexpressed EIN3 protein [1]: similarly induced
levels of EIN3 protein (EIN3 abundance) (EIN3 protein [2]): enhanced EIN3 abundance

C=C [ethylene, Ethylene]
levels of EIN3 protein with de novo translation blocked (EIN3 protein [3]; ethylene-pretreated (2 hr) wild-type seedlings, 100 μM cycloheximide, kept in ethylene): remained constitutively high
level of EIN3 protein (EIN3 protein [3]; wild-type plants, ethylene gas 10 ppm, after 1 hr): markedly increased
levels of transgenically overexpressed EIN3 protein ([1]; EIN3ox plants, ethylene gas 10 ppm): up-regulated
level of EIN3-GFP fusion protein (EIN3-GFP fusion protein [4]): dramatically increased
RNA level of EBF2 gene (EBF2 gene): induced
RNA level of EBF1 gene (EBF1 gene): induced

O=[N+]([O-])[O-].[Ag+] [silver ion, AgNO3]
ethylene-induced EIN3 accumulation (EIN3 protein [3]; wild-type seedlings on MS medium with 100 μM AgNO3 for 3 days, ethylene 4 hr): no longer induced by ethylene

NC1(C(=O)O)CC1 [ACC, aminocyclopropane-1-carboxylic acid]
time of ACC treatment after which EIN3-GFP accumulated in the nucleus (EIN3-GFP fusion protein [5]; 50 μM ACC, time course, same cell followed for 4 hr): 1 h
abundance of EIN3-GFP in the nucleus (EIN3-GFP fusion protein [5]): substantially enhanced
levels of EIN3 protein (EIN3 protein [3]; wild-type seedlings on medium with high concentrations of ACC (10 and 50 μM), 3 days): dramatically elevated

Cl.NCCc1ccc(S(=O)(=O)F)cc1 [Pefabloc]
abundance of transgenically overexpressed EIN3 protein [1]: not
levels of EIN3 protein (EIN3 abundance) (EIN3 protein [2]): no effect

CC(C)C[C@@H](C=O)NC(=O)[C@H](CC(C)C)NC(=O)[C@H](CC(C)C)NC(=O)OCc1ccccc1 [MG132] (Cbz-Leu-Leu-Leu-aldehyde)
abundance of EIN3-GFP in the nucleus (EIN3-GFP fusion protein [5]): rapid nuclear accumulation
abundance of transgenically overexpressed EIN3 protein [1]: similarly induced
levels of EIN3 protein (EIN3 abundance) (EIN3 protein [2]): markedly increased
